From US10406185B2, “Cancer therapy with a parvovirus combined with a BCL-2 inhibitor” (DEUTSCHES KREBSFORSCHUNGSZENTRUM, priority 2013, dated 2019)

Assays:
[1] = test system: U138; experiment: LDH assay (cell lysis), U138; assay type: cell-based, human; settings: U138, H-1PV at MOI 5, 0.5 μM inhibitor, 72 h
Description: 72 hours after infection, percentage of cells undergoing lysis was measured by LDH assay.

[2] = test system: human hematologic tumour xenograft; settings: several human hematologic tumour xenograft models; cited from earlier work
[3] = test system: human platelets; settings: in contrast to ABT-737; cited from earlier work
[4] = test system: peripheral blood mononuclear cells (PBMCs); settings: non malignant PBMCs; read-out: half maximal effective concentration (EC50); cited from earlier work
[5] = test system: U87; experiment: LDH assay (cell lysis), U87; assay type: cell-based, human; settings: U87, ABT-737 alone 5 μM, 72 h
Description: (§1) LDH assays. […] 72 hours after infection, cell lysis was analyzed by LDH assay as described in the materials and methods section. Columns represent the mean values from 3 replicates with relative standard deviation bars.
(§2) H-1PV cytotoxicity was evaluated by quantification of the enzyme lactate dehydrogenase (LDH), which is released from cells due to loss of membrane integrity (lysis). The assay was performed using the CytoTox 96® Non-Radioactive Cytotoxicity Assay Kit according to the manufacturer's instructions (Promega, Heidelberg, Germany).
(§3) Cells were seeded into 96-well plates usually at the density of 4,000 cells/well in 50 μl of their respective culture media supplemented with 10% FBS. […]
(§4) Briefly, 10 μl of 10× lysis buffer [9% (v/v) Triton X-100 (AppliChem, Darmstadt, Germany) in phosphate buffered saline (PBS)] were added per well in three lines of the plate, which served as 100% cell lysis control. […] The absorbance was measured at a wavelength of 492 nm using the Multiscan ELISA Reader. […] For each condition we calculated the average of the three wells incubated (A) or not (B) with lysis buffer. The average value measured in the wells without cells (background) was subtracted from the values obtained in the wells with the cells.

[6] = test system: human glioma cell lines; settings: ABT-737 alone at the dosages of Table 1, 72 h, all glioma lines except U87
Description: as §1, §2, §3, §4

[7] = test system: small-cell lung carcinoma; settings: small-cell lung carcinoma xenograft mouse models; cited from earlier work
[8] = test system: AsPC-1 xenografts; settings: nude rats, treated animals
Description: 5×10^6 AsPC-1 cells were subcutaneously injected in the right flank of 5 week-old female nude rats. After 1 week (when tumour reached the volume of 200-400 mm^3), tumour-bearing animals were randomized in to four groups (n=8). […] Tumour volume was measured with a digital calliper on the days indicated and calculated according to the formula: volume […]=width^2× length/2. Rats were sacrificed when the tumour mass reached 4000 mm^3, in keeping with animal welfare regulations. Data shown represents the average values with standard deviation bars.

[9] = test system: U373, U138, U343 and NCH125 glioma cell lines; experiment: Mitochondrial membrane permeabilization (MitoTracker Red), four glioma cell lines; assay type: cell-based, human; settings: ABT-737 0.5-1 μM or H-1PV MOI 2.5-7.5 alone, 48-96 h
Description: 48-96 hours after infection, cells were stained with Mitotracker Red, harvested and analyzed by flow cytometry. The percentage of cells with MMP, was determined using the CellQuest Software. In the upper panel representative histogram plots are shown for each condition. In the lower panel the results of a typical experiment performed in triplicates are shown. Columns represent the mean values with relative standard deviation bars.
The fluorescent dye MitoTracker® Red CMXRos (Molecular Probes, Invitrogen, Darmstadt, Germany) that stains mitochondria in live cells was used to measure the change in MMP. Due to the formation of pores in the mitochondrial membrane, apoptotic cells cannot retain the dye and show a lower fluorescent signal in flow cytometry analysis.
Glioma cells were seeded in 6-well plates at the density of 2.5×10^5 cells/well in 3 ml of cultural medium with the exception of NCH125 cells that were seeded at the density of 6.25×10^4 cells/well. […] Cell suspension was analyzed with a FACSCalibur (BD Biosciences). At least 10,000 events were acquired and analyzed with the CellQuest Software (BD Biosciences). The average of cells undergoing MMP was calculated from three replicates.

[10] = test system: human glioma cell lines; experiment: Sub-G1 apoptotic population by flow cytometry, eight glioma cell lines; assay type: cell-based; settings: H-1PV MOI 0.5-7.5 or 0.25-5 μM ABT-737 alone, 48-96 h
Description: The occurrence of DNA fragmentation (sub-G1 cell population) in response to treatment was assessed by propidium iodide staining and flow cytometry in eight human glioma cell lines (a-h). […] Representative histogram plots are shown in the upper panel. […] Columns represent the mean values with relative standard deviation bars (lower panel).
Propidium iodide staining was performed, in order to detect apoptotic cells after treatment. The dye intercalates in the DNA, where it can be measured by flow cytometry. The fluorescence emission is proportional to the DNA content in the cells. Apoptotic cells are characterized by nuclear DNA fragmentation and can be identified by lower fluorescence emission (sub-G1 apoptotic cell population) (Riccardi & Nicoletti, 2006). […]
After 48 (U251, U138, A172, U87, NCH125), 72 (U373) or 96 (U343, NCH37) hours, from infection, supernatant and cells (harvested by trypsinization) were collected and washed with PBS. […] The cell suspension was filtered in a nylon net, and measured on a FACSCalibur (BD Biosciences, San Jose, Calif.). A minimum of 20,000 events were acquired and analyzed with the CellQuest Software (BD Biosciences). Propidium iodide was detected in the FL-2 channel. Untreated cells were used to set the gate for the apoptotic cell fraction, as they show the fluorescence emission of viable non-apoptotic cells. […]

Structure (SMILES): CC1(C)CCC(CN2CCN(c3ccc(C(=O)NS(=O)(=O)c4ccc(NCC5CCOCC5)c([N+](=O)[O-])c4)c(Oc4cnc5[nH]ccc5c4)c3)CC2)=C(c2ccc(Cl)cc2)C1 [ABT-199]
- increase of H-1PV cytotoxicity in comparison to virus alone [1]: 1.7 fold
- tumor growth [2]: inhibit tumor growth
- effect on human platelets [3]: spares human platelets

Structure (SMILES): CN(C)CC[C@H](CSc1ccccc1)Nc1ccc(S(=O)(=O)NC(=O)c2ccc(N3CCN(Cc4ccccc4-c4ccc(Cl)cc4)CC3)cc2)cc1[N+](=O)[O-] [ABT-737]
- EC50 [4]: > 1000 nM
- increase of H-1PV cytotoxicity in comparison to virus alone [1]: 3.8 fold
- cytotoxicity of ABT-737 alone [5]: modestcytotoxic effects
- cytotoxicity of ABT-737 alone [6]: no apparent cytotoxicity
- tumour regression [7]: complete regression
- loss of weight or other adverse side effects [8]: No loss of weight or other adverse side effects
- effect on MMP, single treatments [9]: almost no effect on the MMP
- induction of apoptosis (sub-G1 population), single treatments [10]: unable to induce apoptosis efficiently
